“And” between values parts separate entries of the source, which are not always exact repeats. Equal values may be shown once. Read-outs that look alike come from different tables or passages of the source.
Key:
[1] = system: aorta of rabbits; test: Antagonistic activity on the contractions produced by arachidonic acid on the aorta of rabbits, study in vitro; parameters: species or system rabbit
Procedure: The study has been carried out by comparison with Nicardipine using autologous blood as the perfusion liquid. The addition of 0.1 mg of arachidonate to the liquid induces an isometric contraction of the aorta which is registered by a transducer. […] This phenomenon is shown by the relaxation which follows the addition of arachidonate to the perfusion blood. This effect may be noted with 0.1 mg/kg of YS 035 and 1 mg/kg of Nicardipine.

[2] = system: rats; test: Effect on the multiple cerebral infarct in rats (intracarotid sodium arachidonate); format: in vivo, rat; conditions: 15 minutes prior to the infarct
Procedure: The intracarotid injection of sodium arachidonate (0.1 mg) causes in rats an edema reaction accompanied by an accumulation of calcium in the brain tissue and a decrease, on the other hand, of the cholesterol level.

[3] = system: portions of the aorta; test: Contraction of aorta portions by arachidonic acid after oral administration to rabbits (studies in vivo); parameters: species or system rabbit
Procedure: Both substances YS 035 and Nicardipine have been administered orally for a period of three consecutive days to rabbits in such a manner that the last administration of each substance was carried out one hour prior to killing the animals. The portions of the aorta had then been incubated either in PRP as well as in the Krebs-Henseleit liquid.

[4] = system: mitochondria of liver of rats; test: Inhibition of Ca2+-uptake in mitochondria of liver of rats; format: biochemical, rat; conditions: 250 μM
Procedure: The mitochondria prepared according to classical methods are diluted to a concentration of 1.5 mg/cc in a medium of incubation which has the following composition:
After a period of 15 minutes of preincubation at 20° C. there was added ^45 CaCl2 (50 n mol/mg prot.).
In a manner analogous to the preceding experiments, the concentrations determined after two minutes were called the concentration at 0 period of time. The other controls were determined after 5 minutes, after 10 minutes and after 15 minutes. For the determination of Ca^2+, the experiment was carried out in a manner analogous to the preceding experiments.
The results are reported in Table 3 as the quantity of Ca transferred per mg of protein

[5] = system: rats; test: Antagonistic effect to biochemical disturbances during the post-oligemic period in rats; format: in vivo, rat
Procedure: Oligemia in rats is caused by simultaneous bilateral occlusion of the carotid arteries associated with a slight decrease (8-9 kPa) of blood pressure and is maintained for 60 minutes. After removal of the occlusion, the post-oligemic period is followed for several days. In this case, the observation is continued up to the third day, at the time during which the brain accumulation of Ca^++ ions reaches the maximum.
The substances YS 035 or Nicardipine respectively, are administered to rats, 1, 5, 18, 24, 42 and 71 hours after having removed the carotid occlusion. The rats are sacrificed after 72 hours and the tissues are rapidly removed in order to determine their content of water, calcium and potassium.

[6] = system: dogs; test: Effect on the myocardial infarct in the subacute phase in dogs (method of Harris); format: in vivo, dog; conditions: 0.1 mg/kg intravenously, three times within 48 hours
Procedure: The tying up of the […] coronary artery by the method of Harris causes the following effects:
The treatment with YS 035 in the dose of 0.1 mg/kg intravenously, carried after tying the coronary artery and three times within 48 hours in the same dose has provided the following results: […]

[7] = system: calcium entry; test: Calcium antagonistic activity (general statement); conditions: compared with nifedipine
[8] = system: synaptosomes of the brain of rats; test: Inhibition of the Ca2+-uptake in synaptosomes of the brain of rats; format: biochemical, rat; conditions: 250 μM
Procedure: The synaptosomes have been prepared from an homogenate of the brain of rats by centrifugation in the gradient of Filcoll at 23,500 rpm for a period of 30 minutes and diluted to 1.5 mg/cc in the medium constituted by:
After 15 minutes of preincubation, ^45 CaCl2, final concentration 1 mM (0.2μCi/cc is added to the medium).
The first determination has been carried out two minutes after the addition. […] After each period, the reaction has been stopped by centrifugation and the radioactivity has been determined in the supernatant as well as in the pellet. The latter had been denatured previously with PCA, neutralized and subsequently centrifuged.

[9] = Acute toxicity (Litchfield and Wilcoxon); conditions: rat, in vivo, male rats, read-out: toxicity DL50
Text: The acute toxicity has been determined by the oral route, by the venous route in male rats according to the method of Litchfield and Wilcoxon (J. Pharm. Exp. Therap., (1949), 96, p. 99).

[10] = system: kidney cells in newborn hamsters; test: Inhibition of Ca2+-uptake in kidney cells in newborn hamsters; format: cell-based, hamster
Procedure: Cells of kidneys of newborn hamsters have been washed and then resuspended several times in concentration of 5·10^6 /cc in the medium of the following composition:
After 15 minutes of preincubation at 30° C., the reaction was made to begin by addition to the medium of ^45 CaCl2 1 mM (0.1μCi/cc). The concentrations at 0 period of time were the concentrations determined two minutes after the addition. The other controls were carried out after 5 minutes, 10 minutes, and 20 minutes. The determination of [Ca^2+ ] was carried out as in the preceding experiment.

[11] = system: phosphodiesterase; test: Inhibition of the phosphodiesterase activity (method of K. G. Nair); format: biochemical
Procedure: The inhibition of phosphodiesterase activity of YS 035 and of papaverine has been assessed according to the method of K. G. Nair (Biochemistry, 5, 150, 1966).
It has been used a medium containing:
2.5 ml of buffer tris-HCl 0.1M pH 7.4;
50 μl CAMP "Sigma" (1 mg/ml);
5 μl Adenosin deaminase (2 mg/ml);
20 μl of alkaline phosphatase "Sigma" (2.6 mg/ml);
15 μl of phosphodiesterase (10 mg/ml).
YS 035 has been added up to a final concentration of 100 mM and Papaverine to a concentration of 10 mM.

With `COc1ccc(CCN(C)CCc2ccc(OC)c(OC)c2)cc1OC` [YS 035, N-methyl-N-bis-(3,4-dimethoxy-phenyl-ethyl)amine] the “Contraction of the first portion of the aorta” value ([1]; N = 4) was 48 ± 6.7 mm, the inhibition at 0.01 mg/kg ([1]; Oryctolagus cuniculus, dose 0.01 mg·Kg^-1, read-out: Contraction of the second and third portion of the aorta, % Variation) was 42 ± 31% and the inhibition at 0.1 mg/kg ([1]; Oryctolagus cuniculus, dose 0.1 mg·Kg^-1, second and third portion, read-out: % Variation, small contractions observed occasionally prior to relaxation (value in brackets)) was 60 ± 29.3%. It also gave an inhibition at 1 mg/kg ([1]; Oryctolagus cuniculus, dose 1.0 mg·Kg^-1, read-out: Contraction of the second and third portion of the aorta, % Variation) of 132 ± 16.1%, an inhibition at 1 mg/kg ([1]; Oryctolagus cuniculus, line without dose, below dose 1.0 mg·Kg^-1, read-out: Contraction of the second and third portion of the aorta, % Variation) of 16% and a minimal effective dose ([1]; Oryctolagus cuniculus, autologous blood perfusion, 0.1 mg arachidonate, read-out: dose at which relaxation following the addition of arachidonate is noted) of 0.1 mg/kg. For the same molecule, the “inhibitory effect on the contraction produced by the arachidonate (in words)” value ([1]; YS 035 compared with Nicardipine) was “comparable”, the “entry of calcium in brain tissue (in words)” value ([2]; 1 mg/kg intravenously) was “reduces moderately the entry of calcium” and the “other changes at the biochemical level (in words)” value ([2]; intravenously, 1, 3.3 and 10 mg/kg) was “no effect”. For the same molecule, the “Amplitude of contraction, medium Krebs, individual values” ([3]; 10 mg·Kg^-1 P.O., Krebs, controls 12 ± 2.3) was -6 mm and +7 mm, the “Amplitude of contraction, PRP, individual values” ([3]; 10 mg·Kg^-1 P.O., PRP, controls 30 ± 8.0) was “+28 mm” and the “site of action (in words)” value ([3]; aortic endothelial level, particularly PGI2) was “act directly on the synthesis of prostaglandin”. The “Ca2+-uptake” value ([4]; 20° C., control 14.3) was 11.0 n g ions/mg prot, the “inhibitory activity on the uptake of Ca (in words)” value ([4]; compared with nifedipine) was “slightly inferior to the activity of nifedipine” and the “Cerebral concentration, Ca++” value ([5]; 3 mg·Kg^-1 P.O. 7×, 72 h, post-oligemic controls 28.2 ± 3.22) was 10.7 ± 2.46 mmol·Kg^-1 of dry substance. The “Cerebral concentration, H2O” value ([5]; 3 mg·Kg^-1 P.O. 7×, 72 h, post-oligemic controls 80.1 ± 0.37) was 79.0 ± 0.44%, the “Cerebral concentration, K+” value ([5]; 3 mg·Kg^-1 P.O. 7×, 72 h, post-oligemic controls 366.2 ± 12.58) was 420.0 ± 11.85 mmol·Kg^-1 of dry substance and the “intracellular accumulation of Ca++ ions (in words)” value ([5]; rat, in vivo) was “reduce substantially”. For the same molecule, the “seriousness of the cerebral edema (in words)” value ([5]; rat, in vivo) was “capable of reducing the seriousness of the cerebral edema”, the “consumption of glucose in the myocardium (in words)” value [6] was “not changed” and the “consumption of lactate (in words)” value [6] was “has a tendency to return to normality”. For the same molecule, the “consumption of oxygen (in words)” value [6] was “increases substantially”, the “coronary blood flow (in words)” value [6] was “remains similar to that of the control groups, or at the most tends to increase moderately” and the “coronary vascular resistance (in words)” value [6] was “not only is reduced, but becomes inferior to that of the control group”. The “index of the aortic flow (in words)” value [6] was “not changed”, the “index of work of the left ventricle (in words)” value [6] was “significantly higher than that present in the dogs with the infarct” and the “ratio DPTI/TTI (in words)” value [6] was “not changed”. For the same molecule, the “uptake of the free fatty acids (in words)” value [6] was “increases and reaches also a value twice the basal flow measured in healthy control animals”, the “calcium antagonistic activity (in words)” value [7] was “strong calcium antagonistic activity, comparable to nifedipine” and the “inhibitory activity on the calcium uptake (in words)” value [8] was “comparable to the activity exhibited by Nifedipine”. The “Ca2+-uptake” value ([8]; 45CaCl2 1 mM, control 80 ± 7) was 47 ± 4 n g ions/mg prot/15 min, the LD50 ([9]; iv, venous route) was 19 mg/kg and the LD50 ([9]; oral route) was 178 mg/kg. The “Ca2+-uptake” value ([10]; 250 μM, 30° C., control 11.9) was 7.5 n g ions/mg prot/15', the “inhibitory action on the uptake of Ca (in words)” value ([10]; 250 μM, compared with nifedipine) was “superior to the activity of nifedipine” and the percent change in Ca2+-uptake versus control at 250 µM ([10]; Mesocricetus auratus, 0.25 h, 15 min) was -36.9%. The “inhibiting activity on the phosphodiesterases (in words)” value ([11]; general statement) was “completely devoid of inhibiting activity on the phosphodiesterases” and the “inhibition of phosphodiesterase activity (in words)” value ([11]; up to a final concentration of 100 mM) was “completely inactive”.

Reference: patent US4956389A, “Compounds having calcium blocking activity” (priority 1982, dated 1990)
